Reference: ChEMBL document CHEMBL1201862, “PubChem BioAssay data set” (2004)
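Results reflect a 48-hour exposure of cells in 96-well plates to compound at five concentrations. GI50 is the concentration that inhibits growth by half.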 Active and inactive are the calls of the source. Rule as the data show it: active = GI50 up to about 1.1 µM and inactive = higher.

How the values were obtained:
Experiment in all cases: NCI-60 cell line screen, 48 h
MCF7 = system: MCF7
NCI-H226 = system: NCI-H226
MDA-MB-231 = system: MDA-MB-231
BT-549 = system: BT-549
EKVX = system: EKVX
Malme-3M = system: Malme-3M
HL-60 = system: HL-60
RPMI-8226 = system: RPMI-8226
HOP-62 = system: HOP-62
SN12C = system: SN12C
786-0 = system: 786-0
HCT-15 = system: HCT-15
SK-MEL-2 = system: SK-MEL-2
OVCAR-5 = system: OVCAR-5
LOX IMVI = system: LOX IMVI
OVCAR-4 = system: OVCAR-4
PC-3 = system: PC-3
UACC-257 = system: UACC-257
A498 = system: A498
NCI/ADR-RES = system: NCI/ADR-RES
CCRF-CEM = system: CCRF-CEM
CAKI-1 = system: CAKI-1
MDA-MB-435 = system: MDA-MB-435
SF-268 = system: SF-268
SW-620 = system: SW-620
SNB-19 = system: SNB-19
NCI-H23 = system: NCI-H23
HT-29 = system: HT-29
KM12 = system: KM12
TK-10 = system: TK-10
HOP-92 = system: HOP-92
NCI-H522 = system: NCI-H522
SK-MEL-28 = system: SK-MEL-28
ACHN = system: ACHN
SK-OV-3 = system: SK-OV-3
SR = system: SR
SF-539 = system: SF-539
Hs-578T = system: Hs-578T
SF-295 = system: SF-295
UACC-62 = system: UACC-62
OVCAR-8 = system: OVCAR-8
T47D = system: T47D
K562 = system: K562
U-251 = system: U-251
M14 = system: M14
OVCAR-3 = system: OVCAR-3
UO-31 = system: UO-31
MOLT-4 = system: MOLT-4
SNB-75 = system: SNB-75
RXF 393 = system: RXF 393
HCT-116 = system: HCT-116
NCI-H460 = system: NCI-H460
SK-MEL-5 = system: SK-MEL-5
A549 = system: A549
HCC 2998 = system: HCC 2998
COLO 205 = system: COLO 205
DU-145 = system: DU-145
IGROV-1 = system: IGROV-1

Measured: GI50

c1ccc(C2=C(c3ccccc3)Sc3nnc(CCCCCCCCc4nnc5n4NC(c4ccccc4)=C(c4ccccc4)S5)n3N2)cc1
37.5 µM: HCT-15
inactive: MCF7 35.8 µM | NCI-H226 > 100 µM | MDA-MB-231 95.9 µM | BT-549 46.6 µM | EKVX 35.5 µM | Malme-3M > 100 µM | HL-60 17.7 µM | RPMI-8226 27.4 µM | HOP-62 > 100 µM | SN12C 77.3 µM | 786-0 61 µM | SK-MEL-2 63 µM | OVCAR-5 > 100 µM | LOX IMVI 48.2 µM | OVCAR-4 39.2 µM | PC-3 41.4 µM | UACC-257 > 100 µM | A498 > 100 µM | NCI/ADR-RES 45.8 µM | CCRF-CEM 20.9 µM | CAKI-1 > 100 µM | MDA-MB-435 34.9 µM | SF-268 83 µM | SW-620 > 100 µM | SNB-19 54.6 µM | NCI-H23 49 µM | HT-29 31.8 µM | KM12 44.1 µM | TK-10 44.2 µM | HOP-92 54.8 µM | NCI-H522 51.2 µM | SK-MEL-28 > 100 µM | ACHN 53.8 µM | SK-OV-3 > 100 µM | SR 29.9 µM | SF-539 > 100 µM | Hs-578T 73.5 µM | SF-295 46.7 µM | UACC-62 46.6 µM | OVCAR-8 48.6 µM | T47D 24.7 µM | K562 25 µM | U-251 45.2 µM | M14 29.8 µM | OVCAR-3 39.8 µM | UO-31 27.4 µM | MOLT-4 17.9 µM | SNB-75 63.2 µM | RXF 393 50.4 µM | HCT-116 25.8 µM | NCI-H460 48.9 µM | SK-MEL-5 33.6 µM | A549 34.7 µM | HCC 2998 85.5 µM | COLO 205 45.3 µM | DU-145 > 100 µM

N#Cc1c(C#N)c(-c2ccco2)n(/N=C/c2ccco2)c1N
29.6 µM: HCT-15
inactive: MCF7 6.5 µM | NCI-H226 18.8 µM | MDA-MB-231 11.3 µM | BT-549 22.8 µM | EKVX 20.1 µM | Malme-3M > 100 µM | HL-60 > 100 µM | RPMI-8226 > 100 µM | HOP-62 28.1 µM | SN12C 32.6 µM | 786-0 33.2 µM | SK-MEL-2 > 100 µM | OVCAR-5 > 100 µM | LOX IMVI 83.4 µM | OVCAR-4 76.9 µM | PC-3 > 100 µM | UACC-257 > 100 µM | A498 27.6 µM | NCI/ADR-RES 65.9 µM | CCRF-CEM > 100 µM | CAKI-1 > 100 µM | MDA-MB-435 > 100 µM | SF-268 28.2 µM | SW-620 > 100 µM | SNB-19 24.9 µM | NCI-H23 > 100 µM | HT-29 > 100 µM | KM12 > 100 µM | TK-10 96.6 µM | HOP-92 11.2 µM | NCI-H522 > 100 µM | ACHN > 100 µM | SK-OV-3 43.3 µM | SR 26.1 µM | SF-539 23.9 µM | Hs-578T 17.4 µM | SF-295 21.9 µM | UACC-62 > 100 µM | OVCAR-8 23.3 µM | T47D 2.93 µM | K562 > 100 µM | U-251 24.6 µM | M14 > 100 µM | OVCAR-3 > 100 µM | UO-31 > 100 µM | MOLT-4 94.6 µM | IGROV-1 35.6 µM | SNB-75 7.29 µM | RXF 393 19.9 µM | HCT-116 52.8 µM | NCI-H460 > 100 µM | SK-MEL-5 > 100 µM | A549 47.5 µM | HCC 2998 > 100 µM | COLO 205 > 100 µM | DU-145 39 µM
